Reference: patent US8119614B2, “Substitution derivatives of N6-benzyladenosine, methods of their preparation, their use for preparation of drugs, cosmetic preparations and growth regulators, pharmaceutical preparations, cosmetic preparations and growth regulators containing these compounds” (Ustav Experimentalni Botaniky Akademie Ved Ceske Republiky, priority 2002, dated 2012)

Tests used:
HOS = assay: In vitro cytotoxic activity, Calcein AM assay, HOS; assay type: cell-based; settings: 72 hours
[1] = system: human erythroleukaemia K562; assay: In vitro cytotoxic activity, Calcein AM assay, K-562; assay type: cell-based; settings: 72 hours, read-out: IC 50 K-562
Method in brief: (§1)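 Cells seeded at 10^4 per well, pre-incubated 24 h at 37 °C/5% CO2, then exposed 72 h to six 4-fold dilutions of compound (top well concentration usually 166.7 μM) in duplicate. Viability read by Calcein AM fluorescence after 1 h; GI50 taken from dose-response curves.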

[2] = system: breast carcinoma cell lines MCF-7; assay: In vitro cytotoxic activity, Calcein AM assay, MCF7; assay type: cell-based, human; settings: 72 hours, read-out: IC 50 MCF7
Method in brief: as §1

mouse fibroblasts NIH3T3 = assay: In vitro cytotoxic activity, Calcein AM assay, NIH-3T3; assay type: cell-based; settings: 72 hours, read-out: IC 50 NIH-3T3
Method in brief: as §1

[3] = system: Human T-lymphoblastic leukemia cell line CEM; assay: In vitro cytotoxic activity, Calcein AM assay, CEM; assay type: cell-based; settings: 72 hours
Method in brief: as §1

promyelocytic HL-60 = assay: In vitro cytotoxic activity, Calcein AM assay, HL60; assay type: cell-based, human; settings: 72 hours, read-out: IC 50 HL60
Method in brief: as §1

[4] = system: Triticum aestivum cv. Hereward; assay: Senescence inhibition on winter wheat leaf segments (chlorophyll retention); assay type: in vivo; settings: for Concentration with highest activity: chlorophyll retention in excised wheat leaf tips, 96 h dark; for Activity (%) [10^−4 mol · l^−1 BAP = 100%]: chlorophyll retention, at concentration with highest activity
Method in brief: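 Tip segments of the first leaf from 7-day wheat seedlings held, basal ends down, in cytokinin solutions (10^−8M to 10^−4M) for 96 h at 25° C in darkness. Chlorophyll extracted in 80% ethanol at 80° C, read at 665 nm; activity at best concentration given relative to 10^−4 M BAP (100%), means of five replicates.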

[5] = system: Amaranthus caudatus cotyledon/hypocotyl explants; assay: Amaranthus bioassay (betacyanin content); assay type: in vivo; settings: for Concentration with highest activity: 48 h dark; for Activity (%) [10^−5 mol · l^−1 BAP = 100%]: at concentration with highest activity
Method in brief: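 Surface-sterilised Amaranthus caudatus var. atropurpurea seeds were germinated 72 h at 25° C. in darkness, then de-rooted. Cotyledon/hypocotyl explants (20 per dish) were incubated under green safe light on filter paper with 1 ml medium of 10 μmol NA2HPO4-KH2PO4, pH 6.8, 5 μmol tyrosine and cytokinin (10^-8M to 10^-4M) for 48 h at 25° C. in darkness. Betacyanin was extracted in […] acetic acid and measured by absorbance at 537 nm and 620 nm.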

Structure (SMILES)	IC50 (HOS)	IC50 [1]	IC50 [2]	IC50 (mouse fibroblasts NIH3T3)	IC50 [3]	IC50 (promyelocytic HL-60)	Concentration with highest activity [4]	Activity (%) [10^−4 mol · l^−1 BAP = 100%] [4]	Concentration with highest activity [5]	Activity (%) [10^−5 mol · l^−1 BAP = 100%] [5]
OC[C@H]1O[C@@H](n2cnc3c(NCc4ccccc4Cl)ncnc32)[C@H](O)[C@@H]1O [2-chlorobenzylamino, 6-(2-chlorobenzylamino)purine riboside]	> 167 µM	64 µM	> 167 µM	> 167 µM	14.5 µM	1.6 µM	10^−4 mol · l^−1	119 ± 9%	10^−5 mol · l^−1	113 ± 7%
OC[C@H]1O[C@@H](n2cnc3c(NCc4ccccc4F)ncnc32)[C@H](O)[C@@H]1O [2-fluorobenzylamino, 6-(2-fluorobenzylamino)purine riboside]	> 167 µM	33.2 µM	> 167 µM		4.6 µM	3.2 µM	10^−4 mol · l^−1	118 ± 19%	10^−4 mol · l^−1	96 ± 2%
COc1cccc(CNc2ncnc3c2ncn3[C@@H]2O[C@H](CO)[C@@H](O)[C@H]2O)c1O [2-hydroxy-3-methoxybenzylamino, 6-(2-hydroxy-3-methoxybenzylamino)purine riboside]	> 167 µM	19.2 µM	27 µM	> 167 µM	0.3 µM	0.15 µM	10^−4 mol · l^−1	30 ± 8%	10^−4 mol · l^−1	18 ± 5%
COc1ccccc1CNc1ncnc2c1ncn2[C@@H]1O[C@H](CO)[C@@H](O)[C@H]1O [2-methoxybenzylamino, 6-(2-methoxybenzylamino)purine riboside]	21.2 µM	11.2 µM	> 167 µM	> 167 µM	3.2 µM	2.3 µM	10^−4 mol · l^−1	198 ± 12%	10^−5 mol · l^−1	86 ± 4%
Cc1ccccc1CNc1ncnc2c1ncn2[C@@H]1O[C@H](CO)[C@@H](O)[C@H]1O [2-methylbenzylamino, 6-(2-methylbenzylamino)purine riboside]	> 167 µM	> 167 µM	> 167 µM	> 167 µM	14 µM	3.3 µM	10^−4 mol · l^−1	142 ± 6%	10^−5 mol · l^−1	105 ± 14%
OC[C@H]1O[C@@H](n2cnc3c(NCc4ccc(Cl)c(Cl)c4)ncnc32)[C@H](O)[C@@H]1O [3,4-dichlorobenzylamino, 6-(3,4-dichlorobenzylamino)purine riboside]	> 167 µM	6.5 µM	88.8 µM	> 167 µM	3 µM	1.1 µM	10^−4 mol · l^−1	151 ± 29%	10^−4 mol · l^−1	68 ± 10%
OC[C@H]1O[C@@H](n2cnc3c(NCc4cccc(Br)c4)ncnc32)[C@H](O)[C@@H]1O [3-bromobenzylamino, 6-(3-bromobenzylamino)purine riboside]	> 167 µM	19.7 µM	> 167 µM	> 167 µM	5 µM	8 µM	10^−4 mol · l^−1	89 ± 10%	10^−4 mol · l^−1	151 ± 16%
OC[C@H]1O[C@@H](n2cnc3c(NCc4cccc(Cl)c4)ncnc32)[C@H](O)[C@@H]1O [3-chlorobenzylamino, 6-(3-chlorobenzylamino)purine riboside]	> 167 µM	30.4 µM	> 167 µM	> 167 µM	1.6 µM	0.75 µM	10^−4 mol · l^−1	72 ± 8%	10^−5 mol · l^−1	139 ± 12%
OC[C@H]1O[C@@H](n2cnc3c(NCc4cccc(F)c4)ncnc32)[C@H](O)[C@@H]1O [3-fluorobenzylamino, 6-(3-fluorobenzylamino)purine riboside]	> 167 µM	7 µM	16.6 µM	> 167 µM	4 µM	0.92 µM	10^−4 mol · l^−1	220 ± 16%	10^−4 mol · l^−1	92 ± 6%
COc1cccc(CNc2ncnc3c2ncn3[C@@H]2O[C@H](CO)[C@@H](O)[C@H]2O)c1 [3-methoxybenzylamino, 6-(3-methoxybenzylamino)purine riboside]	> 167 µM	> 167 µM	> 167 µM	> 167 µM	7.6 µM	4.9 µM	10^−4 mol · l^−1	209 ± 8%	10^−4 mol · l^−1	98 ± 10%
Cc1cccc(CNc2ncnc3c2ncn3[C@@H]2O[C@H](CO)[C@@H](O)[C@H]2O)c1 [3-methylbenzylamino, 6-(3-methylbenzylamino)purine riboside]	> 167 µM	> 167 µM	> 167 µM	> 167 µM	19.1 µM	6.4 µM	10^−4 mol · l^−1	143 ± 9%	10^−5 mol · l^−1	103 ± 16%
OC[C@H]1O[C@@H](n2cnc3c(NCc4ccc(Cl)cc4)ncnc32)[C@H](O)[C@@H]1O [4-chlorobenzylamino, 6-(4-chlorobenzylamino)purine riboside]	> 167 µM	16.1 µM	> 167 µM	> 167 µM	6.5 µM	5.3 µM	10^−4 mol · l^−1	104 ± 6%	10^−5 mol · l^−1	35 ± 9%
OC[C@H]1O[C@@H](n2cnc3c(NCc4ccc(F)cc4)ncnc32)[C@H](O)[C@@H]1O [4-fluorobenzylamino, 6-(4-fluorobenzylamino)purine riboside]	20 µM	6.4 µM	14 µM	> 167 µM	1.5 µM	0.86 µM	10^−4 mol · l^−1	148 ± 2%	10^−5 mol · l^−1	71 ± 4%
